From patent US10227357B2, “Compounds and methods for kinase modulation, and indications therefor” (Plexxikon Inc., priority 2012, dated 2019)

Columns and labels:
c-kit kinase = molecular target: T1, c-kit kinase (Homo sapiens, UniProt P10721); assay: c-Kit biochemical assay, AlphaScreen, 10 μM ATP; details: c-kit biochemical inhibitory activity; read-out: Biochemical activity (IC50 μM) Kit
T1 construct: The c-kit (or kinase domain thereof) is an active kinase in AlphaScreen; poly-Histidine tag (in-house protein only) (cleaved yes); host or cells: E. coli BL21(DE3)RIL, co-expressed with PTP1B
T1 sequence (P10721 26-976): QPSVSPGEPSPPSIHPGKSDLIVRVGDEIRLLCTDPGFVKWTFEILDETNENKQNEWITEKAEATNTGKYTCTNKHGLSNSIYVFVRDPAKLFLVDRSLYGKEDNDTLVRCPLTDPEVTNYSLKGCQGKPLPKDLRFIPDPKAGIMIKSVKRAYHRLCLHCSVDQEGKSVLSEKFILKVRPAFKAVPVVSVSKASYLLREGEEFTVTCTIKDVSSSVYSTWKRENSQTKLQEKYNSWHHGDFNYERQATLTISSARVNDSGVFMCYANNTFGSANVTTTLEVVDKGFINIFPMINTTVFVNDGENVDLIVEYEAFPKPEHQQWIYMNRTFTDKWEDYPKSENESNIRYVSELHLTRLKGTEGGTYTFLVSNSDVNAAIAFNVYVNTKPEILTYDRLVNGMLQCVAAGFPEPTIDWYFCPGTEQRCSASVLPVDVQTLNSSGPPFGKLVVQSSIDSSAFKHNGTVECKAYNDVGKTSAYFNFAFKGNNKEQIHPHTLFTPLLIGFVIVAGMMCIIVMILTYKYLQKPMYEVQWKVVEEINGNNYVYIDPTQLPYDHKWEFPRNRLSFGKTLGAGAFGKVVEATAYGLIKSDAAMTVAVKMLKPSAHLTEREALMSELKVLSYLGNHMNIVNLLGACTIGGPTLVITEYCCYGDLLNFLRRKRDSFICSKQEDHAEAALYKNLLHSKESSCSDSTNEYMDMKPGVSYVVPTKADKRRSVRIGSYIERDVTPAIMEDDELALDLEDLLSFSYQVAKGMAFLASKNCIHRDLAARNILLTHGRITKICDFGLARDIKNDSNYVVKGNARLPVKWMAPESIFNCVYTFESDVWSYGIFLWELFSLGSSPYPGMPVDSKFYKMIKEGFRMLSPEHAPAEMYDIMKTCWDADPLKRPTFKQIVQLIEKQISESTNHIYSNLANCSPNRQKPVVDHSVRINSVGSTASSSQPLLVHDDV
Outline: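 His-tagged c-Kit expressed in E. coli with co-expressed PTP1B (dephosphorylated), tag removed; 0.1 ng per reaction with biotinylated-peptide substrate in 50 mM HEPES pH 7.2, 5 mM MgCl2, 5 mM MnCl2, 5% DMSO, 10 μM ATP, 1 h at room temperature. Phosphorylation detected by AlphaScreen (streptavidin donor, PY20 acceptor beads); IC50 from 8-point 1:3 dilution series.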

c-kit mutant D816V = molecular target: T2, c-kit mutant D816V (Homo sapiens, UniProt P10721, D816V/DEL694-753); assay: c-Kit mutant D816V biochemical assay, AlphaScreen; details: c-kit D816V biochemical inhibitory activity; read-out: Biochemical activity (IC50 μM) Kit D816V
T2 construct: residues 551-934, kinase insertion domain residues 694-753 deleted; 6x-histidine (N); made in house; host or cells: E. coli Arctic Express (DE3) RIL (Stratagene)
T2 sequence (P10721 with tags, fused parts or gaps DEL694-753/D816V): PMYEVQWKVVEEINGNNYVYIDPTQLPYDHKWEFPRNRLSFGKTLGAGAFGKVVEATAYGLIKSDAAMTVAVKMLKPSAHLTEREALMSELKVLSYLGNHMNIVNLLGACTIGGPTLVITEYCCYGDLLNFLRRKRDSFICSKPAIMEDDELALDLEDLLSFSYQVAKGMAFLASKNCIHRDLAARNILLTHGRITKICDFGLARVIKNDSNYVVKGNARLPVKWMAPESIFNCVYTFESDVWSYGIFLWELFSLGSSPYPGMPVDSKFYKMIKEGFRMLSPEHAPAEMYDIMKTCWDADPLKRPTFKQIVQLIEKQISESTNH
Outline: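 Eight-point, threefold compound series incubated 30 min at room temperature with E. coli-produced D816V kinase, 10 μM ATP, Mg2+/Mn2+ HEPES buffer pH 7.2 and 5% DMSO. After EDTA stop, streptavidin and anti-phosphotyrosine (PY20) AlphaScreen beads gave the read-out, and IC50 was fitted from the concentration–signal curve.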

| Structure (SMILES) | IC50 (c-kit kinase) [µM] | IC50 (c-kit mutant D816V) [µM] |
| --- | --- | --- |
| Cc1nc(C)c(-c2cc3c(N4CCC(NS(=O)(=O)c5ccc(OC(F)(F)F)cc5)CC4)ncnc3[nH]2)s1 [P-0664, N-[1-[6-(2,4-dimethylthiazol-5-yl)-7H-pyrrolo[2,3-d]pyrimidin-4-yl]-4-piperidyl]-4-(trifluoromethoxy)benzenesulfonamide] | 1 to 10 | 0.0001 to 1 |
| O=C(NC1CCCC1)N1CCN(c2ncnc3[nH]ccc23)CC1 [P-0177, N-cyclopentyl-4-(7H-pyrrolo[2,3-d]pyrimidin-4-yl)piperazine-1-carboxamide] | 10 to 200 | 0.0001 to 1 |
| COc1ccc([C@@H](C)NC(=O)N2CCN(c3ncnc4[nH]c(-c5ccc(F)cc5)cc34)C[C@H]2C)cc1 [P-0031, (2R)-4-[6-(4-fluorophenyl)-7H-pyrrolo[2,3-d]pyrimidin-4-yl]-N-[(1R)-1-(4-methoxyphenyl)ethyl]-2-methyl-piperazine-1-carboxamide] | 10 to 200 | 1 to 10 |
| O=C(NCc1ccc(Cl)cn1)N1CCN(c2ncnc3[nH]c(-c4cccnc4)cc23)CC1 [P-0123, N-[(5-chloro-2-pyridyl)methyl]-4-[6-(3-pyridyl)-7H-pyrrolo[2,3-d]pyrimidin-4-yl]piperazine-1-carboxamide] | 0.0001 to 1 | 0.0001 to 1 |
| N#Cc1cc2c(N3CCN(C(=O)NCc4ccc(F)cc4)CC3)ncnc2[nH]1 [P-0150, 4-(6-cyano-7H-pyrrolo[2,3-d]pyrimidin-4-yl)-N-[(4-fluorophenyl)rnethyl]piperazine-1-carboxamide] | 10 to 200 | 10 to 200 |
| CS(=O)(=O)Nc1ccc(-c2ncnc3[nH]c(-c4ccc(F)cc4)cc23)c(F)c1 [P-0398, N-[3-fluoro-4-[6-(4-fluorophenyl)-7H-pyrrolo[2,3-d]pyrimidin-4-yl]phenyl]methanesulfonamide] | 0.0001 to 1 | 0.0001 to 1 |
| CCS(=O)(=O)Nc1ccc(-c2ncnc3[nH]c(-c4ccc(F)cc4)cc23)cc1 [P-0431, N-[4-[6-(4-fluorophenyl)-7H-pyrrolo[2,3-d]pyrimidin-4-yl]phenyl]ethanesulfonamide] | 0.0001 to 1 | 0.0001 to 1 |
| Cc1ccc(NS(=O)(=O)c2ccc(-c3ncnc4[nH]c(-c5ccc(F)cc5)cc34)cc2)cc1 [P-0426, 4-[6-(4-fluorophenyl)-7H-pyrrolo[2,3-d]pyrimidin-4-yl]-N-(p-tolyl)benzenesulfonamide] | 10 to 200 | 1 to 10 |
| C[C@H](NC(=O)N1CCN(c2ncnc3cc(-c4ccc(F)cc4)sc23)CC1(C)C)c1cccc(OC(F)F)c1 [P-0577, N-[(1S)-1-[3-(difluoromethoxy)phenyl]ethyl]-4-[6-(4-fluorophenyl)thieno[3,2-d]pyrimidin-4-yl]-2,2-dimethyl-piperazine-1-carboxamide] | 10 to 200 | 0.0001 to 1 |
| COc1cccc([C@H](C)NC(=O)N2CCN(c3ncnc4[nH]c(-c5cnn(C)c5)cc34)CC2)c1 [P-0093, N-[(1S)-1-(3-methoxyphenyl)ethyl]-4-[6-(1-methylpyrazol-4-yl)-7H-pyrrolo[2,3-d]pyrimidin-4-yl]piperazine-1-carboxamide] | 0.0001 to 1 | 0.0001 to 1 |
| Cc1nn(C)cc1-c1cc2ncnc(N3CCN(C(=O)N[C@@H](C)c4cccc(F)c4)[C@H](C)C3)c2s1 [P-0584, (2R)-4-[6-(1,3-dimethylpyrazol-4-yl)thieno[3,2-d]pyrimidin-4-yl]-N-[(1S)-1-(3-fluorophenyl)ethyl]-2-methyl-piperazine-1-carboxamide] | 1 to 10 | 0.0001 to 1 |
| CNS(=O)(=O)c1cccc(-c2ncnc3[nH]c(C)cc23)c1 [P-0319, N-methyl-3-(6-methyl-7H-pyrrolo[2,3-d]pyrimidin-4-yl)benzenesulfonamide] | 10 to 200 | 10 to 200 |
| Cc1ccc(S(=O)(=O)Nc2ccc(-c3ncnc4cc(C5=CCN(C(=O)OC(C)(C)C)CC5)sc34)cc2)cc1 [P-0614, tert-butyl 4-[4-[4-(p-tolylsulfonylamino)phenyl]thieno[3,2-d]pyrimidin-6-yl]-3,6-dihydro-2H-pyridine-1-carboxylate] | 1 to 10 | 0.0001 to 1 |
| O=C(NCc1ccc(F)cc1)N1CCN(c2ncnc3cc(C4=CCNCC4)sc23)CC1 [P-0615, N-[(4-fluorophenyl)methyl]-4-[6-(1,2,3,6-tetrahydropyridin-4-yl)thieno[3,2-d]pyrimidin-4-yl]piperazine-1-carboxamide] | 1 to 10 | 0.0001 to 1 |
| COc1cccc([C@H](C)NC(=O)N2CC=C(c3ncnc4cc(-c5cn(C)nc5C)sc34)CC2)c1 [P-0582, 4-[6-(1,3-dimethylpyrazol-4-yl)thieno[3,2-d]pyrimidin-4-yl]-N-[(1S)-1-(3-methoxyphenyl)ethyl]-3,6-dihydro-2H-pyridine-1-carboxamide] | 1 to 10 | 0.0001 to 1 |
| CCCCc1ccc(S(=O)(=O)Nc2ccc(-c3ncnc4[nH]c(C)cc34)cc2)cc1 [P-0287, 4-butyl-N-[4-(6-methyl-7H-pyrrolo[2,3-d]pyrimidin-4-yl)phenyl]benzenesulfonamide] | 10 to 200 | 1 to 10 |
| CC(C)(C)OC(=O)N1CC=C(c2cc3ncnc(N4CCN(C(=O)NCc5ccc(F)cc5)CC4)c3s2)CC1 [P-0616, tert-butyl 4-[4-[4-[(4-fluorophenyl)methylcarbamoyl]piperazin-1-yl]thieno[3,2-d]pyrimidin-6-yl]-3,6-dihydro-2H-pyridine-1-carboxylate] | 1 to 10 | 0.0001 to 1 |
| Cc1c(-c2cc3ncnc(N4CCN(C(=O)NCc5ccc(F)cc5)CC4)c3s2)cnn1C [P-0620, 4-[6-(1,5-dimethylpyrazol-4-yl)thieno[3,2-d]pyrimidin-4-yl]-N-[(4-fluorophenyl)methyl]piperazine-1-carboxamide] | 1 to 10 | 0.0001 to 1 |
| C[C@H](NC(=O)N1CCN(c2ncnc3cc(-c4ccc(F)cc4)sc23)CC1(C)C)c1ccc(Cl)cc1 [P-0575, N-[(1S)-1-(4-chlorophenyl)ethyl]-4-[6-(4-fluorophenyl)thieno[3,2-d]pyrimidin-4-yl]-2,2-dimethyl-piperazine-1-carboxamide] | 10 to 200 | 0.0001 to 1 |
| COc1cc(NC(=O)N2CCN(c3ncnc4[nH]c(-c5ccccc5)cc34)CC2)cc(OC)c1 [P-0239, N-(3,5-dimethoxyphenyl)-4-(6-phenyl-7H-pyrrolo[2,3-d]pyrimidin-4-yl)piperazine-1-carboxamide] | 0.0001 to 1 | 1 to 10 |
| COc1cccc([C@H](C)NC(=O)N2CCN(c3ncnc4[nH]c(-c5ccc(C#N)cc5)cc34)C[C@H]2C)c1 [P-0692, (2R)-4-[6-(4-cyanophenyl)-7H-pyrrolo[2,3-d]pyrimidin-4-yl]-N-[(1S)-1-(3-methoxyphenyl)ethyl]-2-methyl-piperazine-1-carboxamide] | 1 to 10 | 0.0001 to 1 |
| Cc1cccc(S(=O)(=O)Nc2ccc(-c3ncnc4[nH]c(C)cc34)cc2)c1 [P-0283, 3-methyl-N-[4-(6-methyl-7H-pyrrolo[2,3-d]pyrimidin-4-yl)phenyl]benzenesulfonamide] | 10 to 200 | 1 to 10 |
| Cc1ccc(S(=O)(=O)Nc2ccc(-c3ncnc4[nH]nc(C)c34)cc2)cc1 [P-0447, 4-methyl-N-[4-(3-methyl-1H-pyrazolo[3,4-d]pyrimidin-4-yl)phenyl]benzenesulfonamide] | 1 to 10 | 0.0001 to 1 |
| COc1cc(-c2cc3c(N4CCN(C(=O)Nc5ccc(OC(F)(F)F)cc5)CC4)ncnc3[nH]2)ccn1 [P-0117, 4-[6-(2-methoxy-4-pyridyl)-7H-pyrrolo[2,3-d]pyrimidin-4-yl]-N-[4-(trifluoromethoxy)phenyl]piperazine-1-carboxamide] | 0.0001 to 1 | 10 to 200 |
| O=S(=O)(Nc1ccc(-c2ncnc3[nH]c(C4=CCCC4)cc23)c(F)c1)c1ccc(F)cc1 [P-0321, N-[4-[6-(cyclopenten-1-yl)-7H-pyrrolo[2,3-d]pyrimidin-4-yl]-3-fluoro-phenyl]-4-fluoro-benzenesulfonamide] | 0.0001 to 1 | 0.0001 to 1 |
| Cc1ccc(-c2cc3c(N4CCN(C(=O)N[C@@H](C)c5cccc(OC(F)F)c5)C(C)(C)C4)ncnc3[nH]2)cn1 [P-0002, N-[(1S)-1-[3-(difluoromethoxy)phenyl]ethyl]-2,2-dimethyl-4-[6-(6-methyl-3-pyridyl)-7H-pyrrolo[2,3-d]pyrimidin-4-yl]piperazine-1-carboxamide] | 1 to 10 | 0.0001 to 1 |
| Cn1cc(-c2cc3c(N4CCC(NS(=O)(=O)c5cc(Cl)cs5)CC4)ncnc3[nH]2)cn1 [P-0462, 4-chloro-N-[1-[6-(1-methylpyrazol-4-yl)-7H-pyrrolo[2,3-d]pyrimidin-4-yl]-4-piperidyl]thiophene-2-sulfonamide] | 1 to 10 | 0.0001 to 1 |
| CCc1ccc(S(=O)(=O)Nc2ccc(-c3ncnc4[nH]c(C)cc34)cc2)cc1 [P-0315, 4-ethyl-N-[4-(6-methyl-7H-pyrrolo[2,3-d]pyrimidin-4-yl)phenyl]benzenesulfonamide] | 1 to 10 | 0.0001 to 1 |
| Cc1n[nH]c2ncnc(-c3ccc(NS(=O)(=O)c4cccc(Cl)c4)cc3)c12 [P-0443, 3-chloro-N-[4-(3-methyl-1H-pyrazolo[3,4-d]pyrimidin-4-yl)phenyl]benzenesulfonamide] | 1 to 10 | 0.0001 to 1 |
